This test deals with rat myocardial I/R model. Kind of test: Myocardial infarction area by TTC staining. It counts as in vivo. The conditions noted are these: for infarction region on TTC-stained heart slices, in contrast to I/R group / inhibition of the increase of the myocardial infarction area percentage caused by I/R: 5 mg/kg BW/h intravenous drip, 60 min after reperfusion, FIG. 6A. The procedure: The rats were anesthetized by intramuscularly injecting 20 wt % urethane (1.25 g/kg) and fixed in the supine position. Neck skin was incised and anterior cervical muscles were separated to expose the trachea. Tracheal intubation was performed. Another end of the intubation was attached to a Small Animal Ventilator (ALC-V8, Shanghai Aoteshai Biology Science and Technology Limited Company, Shanghai, China) so as to carry out pressure breathing under the following conditions: a respiratory ratio of 1:1, a respiratory frequency of 75 times/min and a tidal volume of 12 mL/kg. The rectal temperature, measured with YSI REF 401 (Yellow Spring, Ohio, USA), was maintained at 37 37.5° C. by using a thermal blanket. The chest was sterilized and opened at the intercostal space between 2nd 4th ribs near the left and right sternal border to expose the heart. The 3⁄8 curved needle threaded with 3-0 suture was used to pass through the site at 1 2 mm below the juncture of the pulmonary artery cone and the left atrial appendage. The suture was ligated. A polyethylene tubule was placed between the silk suture and myocardial tissue, the silk suture was […] to cause ischemia. Ligature was released 30 min later to establish an I/R model. Danshensu+I/R group (DLA+I/R group): a Danshensu aqueous solution (in normal saline, 1.25 mg/ml) was administrated at a dosage of 5 mg/kg BW/h by intravenous drip 20 min before the experiment and continued until the end of the entire experiment. Notoginsenoside R1+I/R group (R1+I/R group): a Notoginsenoside R1 aqueous solution (in normal saline, 1.25 mg/ml) was administrated at a dosage of 5 mg/kg BW/h by intravenous drip 20 min before the experiment and continued until the end of the entire experiment. Danshensu:R1(4:1)+I/R group (DR(4:1)+I/R group): an aqueous solution of Danshensu and Notoginsenoside R1 at a weight ratio of 4:1, dissolved in normal saline (1.25 mg/ml, namely, in the solution, the concentration of Danshensu is 1 mg/ml and the concentration of Notoginsenoside R1 is 0.25 mg/ml), was administrated at a dosage of 5 mg/kg BW/h (namely, in the total dosage, the dosage of Danshensu is 4 mg/kg BW/h and the dosage of Notoginsenoside R1 is 1 mg/kg BW/h) by intravenous drip 20 min before the experiment and continued until the end of the entire experiment. Danshensu:R1 (1:1)+I/R group (DR(1:1)+IR group): an aqueous solution of Danshensu and Notoginsenoside R1 at a weight ratio of 1:1, dissolved in normal saline (1.25 mg/ml, namely, in the solution, the concentration of Danshensu is 0.625 mg/ml and the concentration of Notoginsenoside R1 is 0.625 mg/ml), was administrated at a dosage of 5 mg/kg BW/h (namely, in the total dosage, the dosage of Danshensu is 2.5 mg/kg BW/h and the dosage of Notoginsenoside R1 is 2.5 mg/kg BW/h) by intravenous drip 20 min before the experiment and continued until the end of the entire experiment. Danshensu:R1 (0.25:1)+I/R group (DR(0.25:1)+IR group): an aqueous solution of Danshensu and Notoginsenoside R1 at a weight ratio of 0.25:1, dissolved in normal saline (1.25 mg/ml, namely, in the solution, the concentration of Danshensu is 0.25 mg/ml and the concentration of Notoginsenoside R1 is 1.0 mg/ml), was administrated at a dosage of 5 mg/kg BW/h (namely, in the total dosage, the dosage of Danshensu is 1 mg/kg BW/h and the dosage of Notoginsenoside R1 is 4 mg/kg BW/h) by intravenous drip 20 min before the experiment and continued until the end of the entire experiment. […]

For the compound `O=C(O)C(O)Cc1ccc(O)c(O)c1` (centres unmarked) [Danshensu, (3,4-dihydroxyphenyl)lactic acid], the “infarction region on TTC-stained heart slices, in contrast to I/R group” value is reported as “decreased obviously” and the “inhibition of the increase of the myocardial infarction area percentage caused by I/R” value is recorded as “significantly suppress”. For the setting “rats, summary statement of the description”, the “reduction of the percentage of the myocardial infarction area after I/R (summary)” value is given as “can reduce”.

Turning to `CC(C)=CCC[C@](C)(O[C@@H]1O[C@H](CO)[C@@H](O)[C@H](O)[C@H]1O)[C@H]1CC[C@]2(C)[C@@H]1[C@H](O)C[C@@H]1[C@@]3(C)CC[C@H](O)C(C)(C)[C@@H]3[C@@H](O[C@@H]3O[C@H](CO)[C@@H](O)[C@H](O)[C@H]3O[C@@H]3OC[C@@H](O)[C@H](O)[C@H]3O)C[C@]12C` [Notoginsenoside R1], the “infarction region on TTC-stained heart slices, in contrast to I/R group” value is reported as “decreased slightly” and the “inhibition of the increase of the myocardial infarction area percentage caused by I/R” value is given as “has not significantly inhibited”.

Source of the values: patent publication US9034398B2, “Traditional Chinese drug comprising Danshen extracts and Sanqi extracts and use thereof” (TASLY Pharmaceutical Group Co., LTD., priority 2009, dated 2015).
